For assay [1], the system named is H22. Description: Antitumor activity against mouse H22 cells implanted in Swiss mouse assessed as tumor growth inhibition at 5 mg/kg/day, iv administered via tail vein for 7 days relative to control. Format: functional. The settings on record: 168 h, read-out: TGI.
In assay [2] the test system is HCT-116. Description: Antiproliferative activity against human HCT116 cells after 48 hrs by MTT assay. The format is functional, cell-based. To be noted: HCT-116, 48 h. Background: Formazan colour is commonly taken as a measure of viable cells.
The subject of assay [3] is K562. The assay is described as follows: Antiproliferative activity against human K562 cells after 48 hrs by MTT assay. The format is functional, cell-based. To be noted: K562, 48 h.
In assay [4] the test system is H22. The assay is described as follows: Antitumor activity against mouse H22 cells implanted in Swiss mouse assessed as inhibition of lung metastasis at 5 mg/kg/day, iv administered via tail vein for 7 days relative to control. The format is functional. To be noted: 168 h.
Assay [5] deals with HepG2. The assay is described as follows: Antiproliferative activity against human HepG2 cells after 48 hrs by MTT assay. Format: functional, cell-based. The settings on record: HepG2, 48 h.
Assay [6] concerns SMMC-7721. Description: Antiproliferative activity against human SMMC7721 cells after 48 hrs by MTT assay. Format: functional, cell-based. To be noted: SMMC-7721, 48 h.

Usually IC50 stands for the concentration at which inhibition is half-maximal. A low value points to greater potency in that assay. With `CN(C)CCN1C(=O)c2cccc3cc(N)cc(c23)C1=O` [AMONAFIDE], the values for the inhibition in vivo at 5 mg/kg/day in assay [1] and in assay [4] were 45.1% and 41.2%, respectively. For the same compound, the figures for the IC50 in assay [2] and in assay [3] were 6.86 µM and 10.1 µM, respectively.
For the compound `O=C1c2cccc3cccc(c23)C(=O)N1CCCNCCCCNCCCNC1CC1`, the 50% inhibitory concentration (IC50) in assay [5] came out at 6.59 µM; in assay [2], 7.21 µM; in assay [3], 8.09 µM; in assay [6], 6.38 µM.
